Measurements taken from US7074758B2, “Two gonadotropin releasing hormones and a method to isolate the same” (Council of Scientific and Industrial Research, priority 2002, dated 2006).
Entries after “also recorded” stand apart in the source; their conditions may differ. Like-named read-outs stand apart in the source and are kept apart here.

How the values were obtained:
[1] = system: murrel pituitary cells; assay: GtH release from murrel pituitary cell incubations, GtH measured by RIA; assay type: cell-based, Indian Murrel; conditions: for GtH released: Table 4, 2 μg GnRH fractions, mean ± SEM of five experiments, species of cells not given; for increase gonadotropin release: fold increase of gonadotropin release
Experimental: Meanwhile Jamaluddin et al, (Gen comp Endocrinology May 1989; 74(2): 190–8) of applicants laboratory developed a very dependable GnRH bioassay. Basic principle of this bioassay is to get the release of GTH from murrel primary pituitary cell culture and determine the amount of GTH released by GTH-RIA. […]
These three acetone fractions were extracted with petroleum ether (40–60° C.) to remove acetone, lipids and other hydrophobic substances. The final precipitates were centrifuged at 8,000 g for 15 min at 4° C. and the residues were stored at −80° C. until further use.

[2] = system: Cirrhinus mrigala pituitary cells; assay: gonadotropin release from carp pituitaries in response to murrel GnRH I and II; assay type: cell-based; conditions: 2 μg GnRH fractions
Text: (§1) Meanwhile Jamaluddin et al, (Gen comp Endocrinology May 1989; 74(2): 190–8) of applicants laboratory developed a very dependable GnRH bioassay. Basic principle of this bioassay is to get the release of GTH from murrel primary pituitary cell culture and determine the amount of GTH released by GTH-RIA. […] Moreover, these two GnRHs act almost equally in different species of carp indicating no species barrier (As shown below in Table 3).

[3] = system: Catla catla pituitary cells; assay: as above; assay type: cell-based; conditions: 2 μg GnRH fractions
Text: as §1

[4] = system: Cyprinus carpio pituitary cells; assay: as above; assay type: cell-based; conditions: 2 μg GnRH fractions

| Substance | GtH released [1] [ng/6 × 10^4 cells] | GtH II released [2] [ng/6 × 10^4 cells] | GtH II released [3] [ng/6 × 10^4 cells] | GtH II released [4] [ng/6 × 10^4 cells] | GnRH activity on the basis of GTH release from in vitro pituitary cell culture [1] | increase gonadotropin release [1] | GnRH activity on the basis of GTH release from in vitro pituitary cell culture ([1]; listed as SRP H) | GnRH activity on the basis of GTH release from in vitro pituitary cell culture ([1]; listed as QRP H) |
| --- | --- | --- | --- | --- | --- | --- | --- | --- |
| des-Gly^10,[D-Ala^6]-LHRH [GnRH superactive analogue, reference compound] | 68.0 ± 2.32 |  |  |  |  |  |  |  |
| mammalian GnRH: mammalian gonadotropin releasing hormone decapeptide, comparator (QHWSYGLRPG; Gonadoliberin-1; UniProt P01148 24-33, looked up) [reference compound] | 49.9 ± 2.02 |  |  |  |  |  |  |  |
| QHWSWGILPG (channa punctatus) [muGnRH II] | 79.2 ± 3.12 | 80.1 ± 2.61 | 82.6 ± 3.02 | 81.7 ± 3.12 | more active gonadotropin releasing hormone than muGnRH I; also recorded: highly active; also recorded: slightly more active | about 35 times | GnRH was found to be located |  |
| QHWSAWRLPG (channa punctatus) [muGnRH I] | 73.3 ± 2.2 | 72.0 ± 2.13 | 74.5 ± 2.32 | 73.8 ± 2.51 | highly active | about 30 times |  | GnRH was found to be located |
